Laboratory results published in PMC8126183, “Three LysM effectors of Zymoseptoria tritici collectively disarm chitin‐triggered plant immunity” (Molecular Plant Pathology, 2021).

Assays:
Mg1LysM = target: T1, Mg1LysM (Zymoseptoria tritici, UniProt F9XHX3); experiment: ligand-induced polymerization, centrifugation pellet with methylene blue; type: binding; details: 200 µM protein stock mixed 1:1 with 2 mM chitohexaose; room temperature overnight; positive control
T1 construct: E. coli-produced; single LysM; borders and tag not described; ligand-independent homodimer

Mgx1LysM = target: T2, Mgx1LysM (Zymoseptoria tritici, UniProt P9WEM2); experiment: as above; type: binding; details: 200 µM protein stock mixed 1:1 with 2 mM chitohexaose; room temperature overnight
T2 construct: mature protein, signal peptide removed; E. coli Origami, pETSUMO; 6xHis-SUMO tag cleaved with ULP1; single LysM
T2 sequence (P9WEM2 19-103): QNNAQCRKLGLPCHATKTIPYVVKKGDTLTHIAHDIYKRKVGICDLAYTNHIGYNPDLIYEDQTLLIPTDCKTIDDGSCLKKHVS

T1 sequence (F9XHX3 19-97): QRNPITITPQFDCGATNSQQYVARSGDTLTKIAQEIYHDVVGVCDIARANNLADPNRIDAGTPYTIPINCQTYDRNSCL

SMILES: CC(=O)N[C@H]1[C@H](O[C@H]2[C@H](O)[C@@H](NC(C)=O)[C@H](O[C@H]3[C@H](O)[C@@H](NC(C)=O)C(O)O[C@@H]3CO)O[C@@H]2CO)O[C@H](CO)[C@@H](O[C@@H]2O[C@H](CO)[C@@H](O[C@@H]3O[C@H](CO)[C@@H](O[C@@H]4O[C@H](CO)[C@@H](O)[C@H](O)[C@H]4NC(C)=O)[C@H](O)[C@H]3NC(C)=O)[C@H](O)[C@H]2NC(C)=O)[C@@H]1O (some centres unmarked) [chitohexaose]
- ligand-induced polymerization, centrifugation pellet with methylene blue (Mg1LysM): protein pellets (red arrowheads) as a consequence of polymerization for Mgx1LysM, Mg1LysM, and RiSLM
- ligand-induced polymerization, centrifugation pellet with methylene blue (Mgx1LysM): a clear Mgx1LysM pellet emerged upon incubation with chitin, and not in the absence
